# Laboratory results published in PMC12512182, “Unveiling the Structural and Biochemical Characteristics of an Acidophilic β‑Mannanase from Soybean (Glycine max)” (Journal of Agricultural and Food Chemistry, 2025).
# Target: T1, GmMAN19-1 (Glycine max, UniProt I1NBK5, Q294W)
# T1 construct: gene LOC100787923; mature form, signal peptide 1-27 removed; pGEX-4T-1 (EcoRI/XhoI) N-terminal GST fusion from E. coli BL21(DE3), GST cut with thrombin leaving N-terminal Gly-Ser; ~40 kDa; 371 residues in the crystal structure
# T1 sequence (I1NBK5 28-410 Q294W): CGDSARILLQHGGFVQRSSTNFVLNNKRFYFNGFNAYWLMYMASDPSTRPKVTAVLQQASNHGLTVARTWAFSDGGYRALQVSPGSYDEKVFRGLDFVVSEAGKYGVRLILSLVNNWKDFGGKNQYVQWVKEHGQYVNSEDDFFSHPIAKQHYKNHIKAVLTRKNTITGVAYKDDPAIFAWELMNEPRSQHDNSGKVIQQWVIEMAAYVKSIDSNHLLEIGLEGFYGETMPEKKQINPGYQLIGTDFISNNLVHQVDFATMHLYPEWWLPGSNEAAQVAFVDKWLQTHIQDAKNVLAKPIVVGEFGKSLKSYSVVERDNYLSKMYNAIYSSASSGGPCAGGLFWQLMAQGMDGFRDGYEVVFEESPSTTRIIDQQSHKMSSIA
# Assay: TLC product profile of M5 conversion
# Assay type: biochemical
# Conditions: 1 μM enzyme, 25 mM M5, pH 4.6, 40 °C (optimal assay conditions); hydrolysis and transglycosylation
structure (smiles),measurement,value
"OC[C@H]1O[C@@H](O[C@H]2[C@H](O)[C@H](O)[C@H](O[C@H]3[C@H](O)[C@H](O)[C@H](O[C@H]4[C@H](O)[C@H](O)[C@H](O[C@H]5[C@H](O)[C@H](O)C(O)O[C@@H]5CO)O[C@@H]4CO)O[C@@H]3CO)O[C@@H]2CO)[C@@H](O)[C@@H](O)[C@@H]1O (stereo partly shown) [M5, mannopentaose]",TLC product profile of M5 conversion,"the Q267W mutant displayed an altered transglycosylation profile, generating shorter-chain oligosaccharides"
